Source: US6541463B1, “Inhibitors of type 5 and type 3 17β-hydroxysteroid dehydrogenase and methods for their use” (Endorecherche, Inc., priority 1998, dated 2003)
Where two headings read alike, the source gives them in different places.

Tests used:
progesterone receptor = experiment: Progesterone receptor assay: inhibition of [3H]R5020 binding, uterine cytosol; parameters: species or system rat
Description: The manner in which the percentage of inhibition is determined is described in “Other Tests; E-Progesterone Receptor Assay”. Lower numbers are desirable.
[17α-methyl-^3H]-promegestone (R5020) (84 Ci/mmol) and the corresponding unlabeled compound were purchased from New England Nuclear (Lachine, Québec, Canada). All other chemicals were of analytical grade.
Stock solutions of the unlabeled steroids were kept at 4° C. in ethanol. The desired steroid solutions were then prepared by appropriate dilution in buffer B (10 mM Tris-HCl, 1.5 mM EDTA, 10 mM α-monothioglycerol, pH 7.4) containing 30% ethanol.
Female Sprague-Dawley rats weighing 200-300 g were obtained from Charles-River Inc. (St-Constant, Québec, Canada). The rats were gonadectomized under general anesthesia (Isoflurane) and killed by cervical dislocation 24 hours later. The uteri are rapidly removed, dissected free from adhering tissue and frozen on dry-ice. Tissues were kept at −80° C. until use.
All procedures were performed at 4° C. Tissues were pulverized frozen in dry ice with a Thermovac pulverizer. The samples were then homogenized in 10 vol (w/v) of buffer A (25 mM Tris-HCl, 1.5 mM EDTA, 10 mM α-monothioglycerol, 10% glycerol, 10 mM sodium molybdate, pH 7.4) using a Polytron PT-10 homogenizer (Brinkmann Instruments, Canada) at a setting of 5 for two periods of 10 sec, with intervals of 10 sec for cooling. The homogenate was then centrifuged at 105,000×g for 90 min. The supernatant was used immediately for assay.
Progesterone binding was measured using the dextran-coated charcoal adsorption technique. […] Each concentration was done in triplicate. Assay was ended with 300 μl of DCC (1% Norit A and 0.1% Dextran T-70 in Buffer B). After 10 min of incubation, tubes were centrifuged at 2,000×g for 10 min. and decanted in vials with 6 ml of BCS liquid scintillation (New England Nuclear, Dupont). The radioactivity was measured in a Beckman counter at a counting efficiency of 35%.

androgen receptor = biological target: T1, androgen receptor (Rattus norvegicus, UniProt P15207); experiment: Androgen receptor (AR) assay: inhibition of [3H]R1881 binding, prostate cytosol
T1 construct: from tissue; host or cells: ventral prostate cytosol of gonadectomized male Sprague-Dawley rats
T1 sequence (P15207 1-902): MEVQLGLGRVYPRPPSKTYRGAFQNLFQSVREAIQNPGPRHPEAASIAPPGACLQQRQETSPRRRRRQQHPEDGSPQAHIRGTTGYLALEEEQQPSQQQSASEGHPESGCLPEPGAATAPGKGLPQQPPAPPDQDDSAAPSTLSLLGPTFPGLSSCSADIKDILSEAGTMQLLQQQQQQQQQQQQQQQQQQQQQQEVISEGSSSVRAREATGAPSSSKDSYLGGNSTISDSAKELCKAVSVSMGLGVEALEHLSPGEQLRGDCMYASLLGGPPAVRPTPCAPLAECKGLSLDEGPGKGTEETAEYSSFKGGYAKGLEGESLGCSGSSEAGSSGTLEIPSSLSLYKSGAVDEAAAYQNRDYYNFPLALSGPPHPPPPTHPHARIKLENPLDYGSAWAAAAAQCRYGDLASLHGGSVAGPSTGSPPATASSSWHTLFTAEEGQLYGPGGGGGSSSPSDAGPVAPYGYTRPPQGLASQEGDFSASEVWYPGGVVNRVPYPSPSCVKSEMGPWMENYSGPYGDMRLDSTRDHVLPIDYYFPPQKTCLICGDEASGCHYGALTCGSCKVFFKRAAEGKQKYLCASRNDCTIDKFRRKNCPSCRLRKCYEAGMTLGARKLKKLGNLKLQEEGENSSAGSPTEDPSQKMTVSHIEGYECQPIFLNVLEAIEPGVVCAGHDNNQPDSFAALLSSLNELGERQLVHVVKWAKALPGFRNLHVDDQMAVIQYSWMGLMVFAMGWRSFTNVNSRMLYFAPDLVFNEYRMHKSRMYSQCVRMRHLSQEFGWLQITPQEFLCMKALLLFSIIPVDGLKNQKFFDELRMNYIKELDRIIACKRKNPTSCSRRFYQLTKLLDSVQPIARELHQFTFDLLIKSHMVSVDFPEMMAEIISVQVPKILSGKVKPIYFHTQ
Description: The manner in which the percentage of inhibition is determined is described in “Other Tests; D-Androgen Receptor (AR) Assays”. Lower numbers are desirable.
Male Sprague-Dawley rats (Crl: CD(SD)Br) weighing 200-300 g were obtained from Charles-River Inc. (St-Constant, Québec, Canada). The rats were gonadectomized under general anesthesia (Isoflurane) and killed by cervical dislocation 24 hours later. The ventral prostates were rapidly removed, dissected free from adhering tissue and frozen on dry-ice. Prostates were kept at −80° C. until assay.
All subsequent steps were performed at 0-4° C. Prostates were homogenized in 5 vol (wt/vol) of buffer A (25 mM Tris-HCl, 1.5 mM EDTA disodium salt, 10 mM α-monothioglycerol, 10% glycerol, and 10 mM sodium molybdate, pH 7.4), using a Polytron PT-10 homogenizer (Brinkman Instruments, Canada) at a setting of 5 for three periods of 10 sec, with intervals of 10 sec for cooling. The homogenate was then centrifuged at 105,000×g for 60 min in a Beckman L5-65 ultracentrifuge (Fullerton, Calif.).
Androgen binding was measured using the hydroxylapatite assay (HAP). In brief, the radioactive steroid [^3H]R1881 solubilized in ethanol was diluted into buffer A. Aliquots of prostate cytosol preparation (0.1 ml) were then incubated with 8 nM [^3H]R1881 (0.1 ml, ˜200,000 cpm) in the presence or absence of the indicated concentrations of unlabeled compounds (0.1 ml, prepared in buffer A containing 10% ethanol) for 16-18 h at 0-4° C. […] Unbound steroids were separated by incubation for 40 min at 0-4° C. with 0.3 ml HAP prepared in buffer P (50 mM, Tris-HCl, 10 mM KH2PO4, pH 7.4) as follows: 10 g HAP were washed with buffer P until the supernatant reached a pH of 7.4 and then following centrifugation and decantation of the supernatant, 37.5 ml of buffer P were added. After incubation with HAP and 10 minutes of centrifugation at 1,000×g, the pellet was washed 3 times with 1 ml buffer P. Thereafter, the radioactivity was extracted from the pellet by incubation at room temperature for 60 minutes with 1 ml EtOH. After centrifugation, the supernatant was decanted into a scintillation vial and the pellet was extracted again with ethanol.

Structure (SMILES)	% Inhibition Progesterone Receptor E^−6 (progesterone receptor; Table 4′, E^−6)	% Inhibition Progesterone Receptor E^−8 (progesterone receptor; Table 4′, E^−8)	inhibition at 1 µM (androgen receptor; Table 4′, E^−6)	inhibition at 0.01 µM (androgen receptor; Table 4′, E^−8)	also measured
COCCOc1cc2c(cc1C#N)C1CC[C@@]3(C)C(CC[C@@]34CCC(C)(C)C(=O)O4)C1CC2 (stereo partly shown) [EM-1396]	0%	0%	2%	0%	–
CC1(C)CC[C@@]2(CCC3C4CCc5cc6oncc6cc5C4CC[C@@]32C)OC1=O (stereo partly drawn) [EM-1407-CS, 1,3,5(10)-estratrien-(2,3-oximino)-17(R)-spiro-2′-(5′,5′-dimethyl-6′-oxo)tetrahydropyran]	3%	0%	0%	0%	–
CCS(=O)(=O)Oc1ccc2c(c1)CCC1C2CCC2(C)C1CCC21CCC(C)(C)C(=O)O1 (stereo not shown) [EM-1364-CS]	0%	0%	0%	0%	–
CC1(C)CCC2(CCC3C4CCc5cc(O)c([N+](=O)[O-])cc5C4CCC32C)OC1=O (stereo not shown) [EM-1125-CS]	7%	5%	1%	2%	–
COCCOc1ccc2c(c1)CCC1C2CCC2(C)C1CCC21CCC(C)(C)C(=O)O1 [EM-1368-CS, 3-Methoxyethoxy-1,3,5(10)-estratrien-17(R)-spiro-2′-(5′,5′-dimethyl-6′-oxo)-tetrahydropyran]	3%	0%	0%	0%	–
CCC(=O)O[C@]1(C(C)=O)CCC2C3C=C(C)C4=CC(=O)C[C@H](C)[C@]4(C)C3CC[C@@]21C (stereo partly shown) [CS-243]	–	–	–	–	% Inhibition Progesterone Receptor (progesterone receptor; E^−6): 27%; % Inhibition Progesterone Receptor (progesterone receptor; E^−8): 0%; % Inhibition Androgen Receptor (androgen receptor; E^−6): 33%; % Inhibition Androgen Receptor (androgen receptor; E^−8): 0%
CN(C)CCOc1ccc2c(c1)CCC1C2CCC2(C)C1CCC21CCC(C)(C)C(=O)O1 (stereo not shown) [EM-1389-CS]	0%	3%	0%	0%	–
CC(=O)O[C@]1(C(=O)N(C)C)CCC2C3C=C(C)C4=CC(=O)CC[C@]4(C)C3CC[C@@]21C (stereo partly shown) [EM-1159]	–	–	–	–	% Inhibition Progesterone Receptor (progesterone receptor; E^−6): 4%; % Inhibition Progesterone Receptor (progesterone receptor; E^−8): 2%; % Inhibition Androgen Receptor (androgen receptor; E^−6): 1%; % Inhibition Androgen Receptor (androgen receptor; E^−8): 1%
COC(=O)CCCC(=O)O[C@]1(C(C)=O)CC[C@H]2[C@@H]3C=C(C)C4=CC(=O)CC[C@]4(C)[C@H]3CC[C@@]21C [EM-1007, 6-Methyl-4,6-pregnadien-17α-ol-3,20-dione 4′-Carbomethoxybutyrate]	–	–	–	–	% Inhibition Progesterone Receptor (progesterone receptor; E^−6): 0%; % Inhibition Progesterone Receptor (progesterone receptor; E^−8): 0%; % Inhibition Androgen Receptor (androgen receptor; E^−6): 0%; % Inhibition Androgen Receptor (androgen receptor; E^−8): 0%
CC1(C)CC[C@@]2(CC[C@H]3[C@@H]4CCc5c(cc(Br)c(O)c5Br)[C@H]4CC[C@@]32C)OC1=O [EM-1382-CS]	0%	2%	–	–	% Inhibition Androgen Receptor E^−6 (androgen receptor; Table 4′, E^−6): 0%; % Inhibition Androgen Receptor E^−8 (androgen receptor; Table 4′, E^−8): 0%
COCCOc1cc2c(cc1C(=O)O)C1CCC3(C)C(CCC34CCC(C)(C)C(=O)O4)C1CC2 [EM-1405, 2-Carboxy-3-(2″-methoxyethyloxy)-1,3,5(10)-estratrien-17(R)-spiro-2′-(5′,5′-dimethyl-6′-oxo)tetrahydropyran]	0%	0%	0%	0%	–
COc1cc2c(cc1C)C1CCC3(C)C(CCC34CCC(C)(C)C(=O)O4)C1CC2 (stereo not shown) [EM-1412-CS]	0%	0%	0%	0%	–
COc1ccc2c(c1)CCC1C2CCC2(C)C1CCC21CCC(C)(C)C(=O)O1 (stereo not shown) [EM-1370]	0%	0%	2%	3%	–
CC1(C)CC[C@@]2(CCC3C4CCc5cc(C(N)=O)ccc5C4CCC32C)OC1=O (stereo partly shown) [EM-1404]	0%	0%	0%	0%	–
CCCC(=O)O[C@]1(C)C(=O)CCC2C3C=C(C)C4=CC(=O)CC[C@]4(C)C3CC[C@@]21C (stereo partly shown) [EM-1078]	–	–	–	–	% Inhibition Progesterone Receptor E^−6 (progesterone receptor; E^−6): 53%; % Inhibition Progesterone Receptor E^−8 (progesterone receptor; E^−8): 0%; inhibition at 1 µM (androgen receptor; read-out: % Inhibition Androgen Receptor E^−6): 83%; inhibition at 0.01 µM (androgen receptor; read-out: % Inhibition Androgen Receptor E^−8): 7%
CC(=O)O[C@]1(C(C)=O)CCC2C3C=C(C)C4=CC(=O)CC[C@]4(C)C3CC[C@@]21C (stereo partly shown) [megestrol acetate, reference compound]	–	–	–	–	% Inhibition Progesterone Receptor (progesterone receptor; * E^−5): 97* %; % Inhibition Progesterone Receptor (progesterone receptor; * E^−7): 36* %; % Inhibition Progesterone Receptor (progesterone receptor; E^−6): 77%; % Inhibition Progesterone Receptor (progesterone receptor; E^−8): 3%
CC1CCC2(CCC3C4CCc5cc(O)c([N+](=O)[O-])cc5C4CCC32C)OC1=O [EM-1131, 2-Nitro-1,3,5(10)-estratrien-3-ol-17(R)-spiro-2′-(5′-methyl-6′-oxo)tetrahydropyran]	10%	2%	–	2%	% Inhibition Androgen Receptor E^−6 (androgen receptor; Table 4′, E^−6): 1%
COCCOc1cc2c(cc1C(N)=O)C1CC[C@@]3(C)C(CC[C@@]34CCC(C)(C)C(=O)O4)C1CC2 (stereo partly drawn) [EM-1424, 2-Carbamoyl-3-(2″-methoxyethyloxy)-1,3,5(10)-estratrien 17(R)-spiro-2′-(5′,5′-dimethyl-6′-oxo)tetrahydropyran]	0%	1%	2%	2%	–
CC1CCC2(CCC3C4CCc5cc(O)c([N+](=O)[O-])cc5C4CCC32C)OC1=O [EM-1126, 2-Nitro-1,3,5(10)-estratrien-3-ol-17(R)-spiro-2′-(5′-methyl-6′-oxo)tetrahydropyran]	14%	5%	–	–	% Inhibition Androgen Receptor E^−6 (androgen receptor; Table 4′, E^−6): 10%; % Inhibition Androgen Receptor E^−8 (androgen receptor; Table 4′, E^−8): 2%
